Where a name gives a salt, the structure may show the parent alone. Where a SMILES comes first, the peptide text is derived from it.
How the values were obtained:
[1] = pH-solubility titration (visual: precipitate, turbidity, viscosity, gel); format: physicochemical
Protocol: Compound 1 obtained as a trihydrochloride salt, as described in Example 1, and was screened for aqueous solubility at different pHs, by carrying out pH titrations according to the following protocol. In some cases Met-12 was run through an identical experimental procedure to determine its solubility pH profile under the same conditions.
Compound 1 (10 mg) was dissolved in water (270-900 ? L) in a 2 mL clear plastic centrifuge tube with vortexing to give a pH ˜2.4 solution. […] This solution was then diluted with the appropriate amount of cosolvent or other excipient (sugar, surfactant etc.) to produce a clear acidic solution of 10 mg of Compound 1 in […] of the test solution at room temperature ([…]). Small aliquots of a basic solution (usually sodium hydroxide 1.0 M or 0.1 M, but sometimes other bases when investigating buffers) were added using a microliter syringe. Between additions the solution was mixed by vortexing, and the solution was inspected visually for precipitates of various types, turbidity, as a likely sign of microprecipitates, and viscosity to detect gel formation. pH measurements were taken at all these observation points. Some experiments titrated from the endogenous low pH to pH 10, but later titrations were not carried much above pH 7, or sometimes even lower.

[2] = test system: FasL-induced caspase 8 activation in 661W cells; experiment: Blockade of FasL-induced caspase 8 activation in 661W cells; format: cell-based; details: for Concentration of maximal inhibition of FasL-induced caspase 8 activation / EC50: FasL 500 ng/mL, 48 hours; for EC50: trihydrochloride, unbuffered solution in DMSO, read-out: EC50, inhibition of FasL-induced caspase 8 activation
Excerpt: Cell Culture. The 661W photoreceptor cell line was generously provided by Muayyad Al-Ubaidi (Department of Cell Biology, University of Oklahoma Health Sciences Center, Oklahoma City, OK). The 661W cell line is a photoreceptor line that has been immortalized by the expression of SV40-T antigen under control of the human interphotoreceptor retinol-binding protein (IRBP) promoter (Al-Ubaidi et al.,J Cell Biol., 119(6):1681-1687 (1992), herein incorporated by reference in its entirety). 661W cells express cone photoreceptor markers, including blue and green cone pigments, transducin, and cone arrestin (Tan et al., Invest Ophtholmol Vis Sci., (3):764-768 (2004), herein incorporated by reference in its entirety), and can undergo caspase-mediated cell death (Kanan et al., Invest Ophthalmol Vis Sci., 48(1):40-51 (2007), herein incorporated by reference in its entirety).
The 661W cell line was maintained in Dulbecco's modified Eagle's medium containing 10% fetal bovine serum, 300 mg/L glutamine, 32 mg/L putrescine, 40 μL/L β-mercaptoethanol, 40 μg/L hydrocortisone 21-hemisuccinate, and 40 μg/L progesterone. The media also contained penicillin (90 U/mL) and streptomycin (0.09 mg/mL). Cells were grown at 37° C. in a humidified atmosphere of 5% CO2 and 95% air.
Activity Assays. Caspase 3, caspase 8 and caspase 9 activities were measured with colorimetric tetrapeptide cleavage assay kits, per the manufacturer's instructions (BioVision, Mountain View, Calif). Total (661W/retinal) protein was extracted as per a previously published protocol (Zacks et al., IOVS, 44(3):1262-1267 (2003), herein incorporated by reference in its entirety). One hundred micrograms of total (661W/retinal) protein was incubated with caspase 3 (DEVD-pNA), caspase 8 (IETD-pNA) or caspase 9 substrates (LEHD-pNA) at 200 μM final concentration for 60 minutes. Absorbance was measured at 405 nm in a microplate reader (Spectra-MAX 190, Molecular Devices, Sunnyvale, Calif). As a negative control, (661W/retinal) protein was incubated with assay buffer without the tetrapeptide. A second negative control was used in which assay buffer alone was incubated with the tetrapeptide. As a positive control, purified caspase 3, caspase 8, or caspase 9 was incubated with the tetrapeptide alone.
661W cells were treated with a FasL. […] Activity of caspase 8 measured in 661W cell lysates increased with increasing concentration of FasL, peaking with the 500 ng/ml dose. 661W cells were treated with 500 ng/ml FasL and measured activity levels at various time points.
The assay system described above was used as an in vitro screening system to find potential inhibitors of the Fas-induced Caspase 8 activation pathway. […] This activity is very dependent on the formulation in which the Met-12 peptide is delivered. The final formulation for Met-12 was diluted 1000-fold for this assay, and to get to the top of the dose curve, which is normally 100 μM, one uses lesser dilutions.

[3] = test system: photoreceptor cells in the detached portion of the retina; experiment: Rat retinal detachment model, TUNEL count of apoptotic cells; format: in vivo, rats; details: for Cells positive for TUNEL in detached retina: Example 10, subretinal, three days
Protocol: Briefly, rodents were anesthetized with a 50:50 mix of ketamine (100 mg/mL) and xylazine (20 mg/mL), and pupils were dilated with topical phenylephrine (2.5%) and tropicamide (1%). A 20-gauge microvitreoretinal blade (Walcott Scientific, Marmora, NJ) was used to create a sclerotomy 2 mm posterior to the limbus, carefully avoiding lens damage.
Under direct visualization through an operating microscope, a subretinal injector (Glaser, 32-gauge tip; BD Ophthalmic Systems, Sarasota, FL) was introduced through the sclerotomy into the vitreous cavity and then through a peripheral retinotomy into the subretinal space. Sodium hyaluronate (10 mg/mL) was slowly injected to detach the neurosensory retina from the underlying retinal pigment epithelium.
In all experiments, approximately one-third to one-half of the superonasal neurosensory retina was detached. In all animals, detachments were created in the same location to allow for direct comparison of retinal cell counts. Detachments were created in the left eye, leaving the right eye as the control. […]
After three days rats were euthanized, retinas were excised, fixed, sectioned, and stained for TUNEL assays. Areas of detached retina were counted for number of apoptotic cells. Each experiment involved 4 fields from each of 4 sections obtained from 5 or 6 retinas for each dosing group.

[4] = 5 μg in 5 μL DMSO, trihydrochloride

In the case of `CC[C@H](C)[C@H](NC(=O)[C@H](Cc1ccc(O)cc1)NC(=O)[C@H](CC(N)=O)NC(=O)[C@@H](NC(=O)[C@H](C)NC(=O)CNC(=O)[C@H](CC(C)C)NC(=O)[C@H](Cc1ccc(O)cc1)NC(=O)[C@@H](NC(=O)[C@H](Cc1c[nH]cn1)NC(=O)[C@@H](N)Cc1c[nH]cn1)[C@@H](C)CC)C(C)C)C(=O)N[C@@H](Cc1ccc(O)cc1)C(=O)O` [Met-12, HHIYLGAVNYIY, reference compound] (H-HHIYLGAVNYIY-OH; N-terminus assumed), the “Aqueous solubility (in words)” value [1] is reported as “extremely poor aqueous solubility”, the “pH of onset of gelling” value ([1]; 70% Propylene glycol) is reported as 3.2 pH and the “pH to which a clear mobile solution persists” value ([1]; aqueous solution titrated with sodium hydroxide) is reported as 3.0 pH. For the same molecule, the “Loss in activity of a non-solution formulation” value ([2]; 10 mg/mL in 20 mM citrate buffer pH 2.8, in vitro and in vivo assays) was “at least a fivefold loss in activity”, the “Caspase 8 activation remaining relative to baseline” value ([2]; Met-12 trihydrochloride at 10 μM, depending on the assay) was 0-25% and the “Dose at which maximum inhibition is achieved” value ([2]; aqueous based formulations) was 50 to 100 µM. For the same molecule, the “Concentration of maximal inhibition of FasL-induced caspase 8 activation” value ([2]; trihydrochloride in DMSO) was 10 µM, the EC50 [2] was 4000 nM and the “Cells positive for TUNEL in detached retina” value (from here on “Cells positive for TUNEL”) [3, 4] was “over 1%”.

In the case of `CC[C@H](C)[C@H](NC(=O)[C@H](Cc1ccc(O)cc1)NC(=O)[C@H](CC(N)=O)NC(=O)[C@@H](NC(=O)[C@H](C)NC(=O)CNC(=O)[C@H](CC(C)C)NC(=O)[C@H](Cc1ccc(O)cc1)NC(=O)[C@@H](NC(=O)[C@H](Cc1cnc[nH]1)NC(=O)[C@@H](N)Cc1cnc[nH]1)[C@@H](C)CC)C(C)C)C(=O)N[C@@H](Cc1ccc(O)cc1)C(N)=O` [Compound 1 triacetate, His-His-Ile-Tyr-Leu-Gly-Ala-Val-Asn-Tyr-Ile-Tyr-NHz] (H-HHIYLGAVNYIY-NH2), the “Inherent pH of the salt” value ([1]; 2 mg/mL in water) is reported as 3.4-3.6 pH and the “Apoptotic cells in detached retina” value ([3]; Example 12, 1 μg in DMSO) is reported as 1.2%.

For `CC[C@H](C)[C@H](NC(=O)[C@H](Cc1ccc(O)cc1)NC(=O)[C@H](CC(N)=O)NC(=O)[C@@H](NC(=O)[C@H](C)NC(=O)CNC(=O)[C@H](CC(C)C)NC(=O)[C@H](Cc1ccc(O)cc1)NC(=O)[C@@H](NC(=O)[C@H](Cc1cnc[nH]1)NC(=O)[C@@H](N)Cc1cnc[nH]1)[C@@H](C)CC)C(C)C)C(=O)N[C@@H](Cc1ccc(O)cc1)C(N)=O` [Compound 1 trihydrochloride, His-His-Ile-Tyr-Leu-Gly-Ala-Val-Asn-Tyr-Ile-Tyr-NHz] (H-HHIYLGAVNYIY-NH2), the “Most potent concentration (FIG. 3)” value ([2]; 10 mg/mL in 1% PS-20, 3% PG, pH 4) was 3 µM, the “Dose potency and efficacy versus Met-12 or Compound 1 in DMSO (FIG. 2)” value ([2]; 10 mg/mL in 2% Polysorbate 20 and 2% PG at pH 4) was “both considerably more dose potent, but also more efficacious” and the “Course of activity with concentration (FIG. 3)” value ([2]; 10 mg/mL in 3% PS-20, 3% PG, pH 4, top dose 30) was “continued increase in activity”. For the same molecule, the “Potency relative to Met-12 by 1C50” value ([2]; 661W cells, both in DMSO) was 10 fold, the “Potency relative to Met-12 by concentration of maximal inhibition” value ([2]; 661W cells, both in DMSO) was “approximately 3 fold” and the “Dose potency versus Met-12 (FIG. 2)” value ([2]; DMSO (20 mg/mL)) was “somewhat more dose potent than Met-12”. For the same molecule, the “Activity above 30 μM” value ([2]; trihydrochloride in DMSO, U-shaped curve) was “almost inactive”, the “Concentration of maximal inhibition of FasL-induced caspase 8 activation” value ([2]; trihydrochloride in DMSO) was 3 µM and the EC50 [2] was 400 nM. The “Cells positive for TUNEL” value ([3]; 0.5 μg in DMSO) was 0.58%, the “Cells positive for TUNEL” value ([3]; 1 μg in DMSO) was 1.14% and the “Cells positive for TUNEL” value [3, 4] was 0.82%. The “Cells positive for TUNEL” value ([3]; 10 μg in DMSO) was 0.9%, the “Apoptotic cells in detached retina” value ([3]; Example 11, 1 μg in 2% propylene glycol, 2% poloxamer 407, pH 4) was 0.4% and the “Apoptotic cells in detached retina” value ([3]; Example 11, 1 μg in 3% propylene glycol, 3% PS-20, pH 4.0) was 0.01%. The “Apoptotic cells in detached retina” value ([3]; Example 11, 5 μg in 2% propylene glycol, 2% poloxamer 407, pH 4) was 0.3%, the “Apoptotic cells in detached retina” value ([3]; Example 11, 5 μg in 3% propylene glycol, 3% PS-20, pH 4.0) was 2.9% and the “Apoptotic cells in detached retina” value ([3]; Example 11, 5 μg in DMSO) was 2.5%. For the same molecule, the “Apoptotic cells in detached retina” value ([3]; Example 12, 1 μg in DMSO) was 2.4%.

Reference: patent publication US12258425B2, “Peptide compositions and methods of use” (priority 2015, dated 2025)
